Reference: PubChem BioAssay (NCI)
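Following 48 hours of exposure in 96-well plates, responses at five concentrations were used to interpolate endpoints linearly. Definition used: TGI = concentration required for complete inhibition of growth.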

How the values were obtained:
Experiment in all cases: NCI anticancer screen, dose series, 48 h
SW-620 colon = tested on: SW-620 colon
BT-549 breast = tested on: BT-549 breast
MCF7 breast = tested on: MCF7 breast
DLD-1 colon = tested on: DLD-1 colon
DMS 273 small cell lung = tested on: DMS 273 small cell lung
DMS 114 small cell lung = tested on: DMS 114 small cell lung
KM20L2 colon = tested on: KM20L2 colon
HOP-18 NSCLC = tested on: HOP-18 NSCLC
LXFL 529 NSCLC = tested on: LXFL 529 NSCLC
M19-MEL melanoma = tested on: M19-MEL melanoma
XF 498 CNS = tested on: XF 498 CNS
RXF-631 renal = tested on: RXF-631 renal
SNB-78 CNS = tested on: SNB-78 CNS

Cc1nnc2n(c1=O)CCN2C was tested, and the TGI (SW-620 colon) was > 100 µM, the TGI (BT-549 breast) was > 100 µM and the TGI (MCF7 breast) was > 100 µM.
CCOC(=O)c1cc2c(OCc3ccccc3)c(OC)cc3c2c(n1)N(c1ccc(OC)cc1)C(C)C3 (configuration not stated) was tested, and the TGI (DLD-1 colon) was > 50 µM, the TGI (DMS 273 small cell lung) was > 50 µM and the TGI (SW-620 colon) was > 50 µM. The TGI (DMS 114 small cell lung) was > 50 µM, the TGI (KM20L2 colon) was > 50 µM and the TGI (HOP-18 NSCLC) was > 50 µM. The TGI (LXFL 529 NSCLC) was > 50 µM, the TGI (M19-MEL melanoma) was > 50 µM and the TGI (XF 498 CNS) was > 50 µM.
CCCCCCCCCC(=O)N[C@@H](c1ccco1)[C@@H](O)C(=O)O[C@H]1C[C@@]2(O)[C@@H](OC(=O)c3ccccc3)[C@@H]3[C@]4(OC(C)=O)CO[C@@H]4C[C@H](O)[C@@]3(C)C(=O)[C@H](OC(C)=O)C(=C1C)C2(C)C was tested, and the TGI (SW-620 colon) was > 50 µM, the TGI (BT-549 breast) was 1.07 µM and the TGI (MCF7 breast) was 1.81 µM.
COc1ccc(C(Cc2ccccc2)C2NC(=S)NC2=O)cc1 (configuration not stated) was tested, and the TGI (SW-620 colon) was > 25 µM and the TGI (MCF7 breast) was > 25 µM.
In the case of CC1(C)CC2(C)CC1CC2(O)c1ccccc1 (configuration not stated), the TGI (SW-620 colon) is reported as > 100 µM and the TGI (BT-549 breast) is reported as > 100 µM.
Cc1ccc(S(=O)(=O)NC(=O)NC(CCCCN=C(N)N)C(=O)O)cc1 (configuration not stated) was tested, and the TGI (SW-620 colon) was > 100 µM, the TGI (BT-549 breast) was > 100 µM and the TGI (MCF7 breast) was > 100 µM.
COC(=O)CC(C(C(=O)OCc1ccccc1)C(C)O)N1C(=O)OC(c2ccccc2)C1c1ccccc1 (configuration not stated) was tested, and the TGI (DLD-1 colon) was > 100 µM, the TGI (DMS 273 small cell lung) was > 100 µM and the TGI (SW-620 colon) was > 100 µM. The TGI (DMS 114 small cell lung) was > 100 µM, the TGI (KM20L2 colon) was > 100 µM and the TGI (RXF-631 renal) was > 100 µM. For the same compound, the TGI (LXFL 529 NSCLC) was > 100 µM, the TGI (M19-MEL melanoma) was > 100 µM and the TGI (XF 498 CNS) was > 100 µM.
COc1cc(C2C(Cl)C(=O)N2NC(=O)c2ccc(NC(C)=O)cc2)ccc1O (configuration not stated) was tested, and the TGI (SNB-78 CNS) was > 100 µM, the TGI (DLD-1 colon) was > 100 µM and the TGI (DMS 273 small cell lung) was > 100 µM. For the same compound, the TGI (SW-620 colon) was > 100 µM, the TGI (DMS 114 small cell lung) was > 100 µM and the TGI (KM20L2 colon) was > 100 µM. For the same compound, the TGI (LXFL 529 NSCLC) was > 100 µM, the TGI (M19-MEL melanoma) was > 100 µM and the TGI (XF 498 CNS) was > 100 µM.
In the case of CC(=O)NC1=C(NCCCl)C(=O)c2ccccc2C1=O, the TGI (SW-620 colon) is reported as > 100 µM, the TGI (BT-549 breast) is reported as > 100 µM and the TGI (MCF7 breast) is reported as > 100 µM.
Compound Cc1ccc(-n2cc(-c3ccc(Cl)cc3)c3c(NN)ncnc32)cc1 has a TGI (SW-620 colon) of 26.2 µM.
With O=c1[nH]c(=O)n(COCCO)c2ccsc12 the TGI (SW-620 colon) was > 100 µM, the TGI (BT-549 breast) was > 100 µM and the TGI (MCF7 breast) was > 100 µM.
C=C1[C@@](C)([C@@H]2CCCS2)[C@H]2C(C)=C[C@]1(C)n1c(=O)n(-c3ccccc3)c(=O)n12 was tested, and the TGI (SW-620 colon) was > 100 µM, the TGI (BT-549 breast) was > 100 µM and the TGI (MCF7 breast) was > 100 µM.
For O=CC(O)C(O)C(O)C1CNC(=S)O1 (configuration not stated), the TGI (SW-620 colon) was > 100 µM, the TGI (BT-549 breast) was > 100 µM and the TGI (MCF7 breast) was > 100 µM.
In the case of COC(=O)c1c(C)cccc1C1CN=NC12Cc1ccc(C)c(C)c1C2=O (configuration not stated), the TGI (SW-620 colon) is reported as > 100 µM and the TGI (MCF7 breast) is reported as > 100 µM.
With CC12CCCCC1=[N+]([O-])C(C)(C)N2O (configuration not stated) the TGI (SW-620 colon) was > 100 µM and the TGI (MCF7 breast) was > 100 µM.
With Cc1cn(C2CC(CCCO)C(CO)O2)c(=O)[nH]c1=O (configuration not stated) the TGI (DLD-1 colon) was > 100 µM, the TGI (DMS 273 small cell lung) was > 100 µM and the TGI (SW-620 colon) was > 100 µM. The TGI (DMS 114 small cell lung) was > 100 µM, the TGI (KM20L2 colon) was > 100 µM and the TGI (LXFL 529 NSCLC) was > 100 µM. For the same compound, the TGI (M19-MEL melanoma) was > 100 µM and the TGI (XF 498 CNS) was > 100 µM.
For CCOC(=O)NNC(=O)NCc1ccccc1CNC(=O)NNC(=O)OCC, the TGI (SW-620 colon) was > 100 µM, the TGI (BT-549 breast) was > 100 µM and the TGI (MCF7 breast) was > 100 µM.
In the case of COC(=O)c1c(CC(Cc2ccc3c(c2)CCCC3)C(=O)OC)ccc2c1CCCC2 (configuration not stated), the TGI (SW-620 colon) is reported as > 100 µM, the TGI (BT-549 breast) is reported as > 100 µM and the TGI (MCF7 breast) is reported as > 100 µM.
For O=C1CC(C(OCc2ccccc2)C(OCc2ccccc2)C(COCc2ccccc2)OCc2ccccc2)CC(=O)N1 (configuration not stated), the TGI (SW-620 colon) was > 100 µM, the TGI (BT-549 breast) was > 100 µM and the TGI (MCF7 breast) was > 100 µM.
With Cc1nc2n(c1/C=C1/C(=O)Nc3ccccc31)CCS2 the TGI (SW-620 colon) was > 100 µM, the TGI (BT-549 breast) was > 100 µM and the TGI (MCF7 breast) was > 100 µM.
In the case of COC(=O)NNC(c1ccc(Cl)cc1)c1ccc(Cl)cc1, the TGI (SW-620 colon) is reported as 70 µM, the TGI (BT-549 breast) is reported as 32.4 µM and the TGI (MCF7 breast) is reported as 75.6 µM.
In the case of O=C1CC(C(CC(=O)c2ccccc2)c2ccccc2)C(=O)c2ccccc2N1 (configuration not stated), the TGI (SW-620 colon) is reported as > 100 µM, the TGI (BT-549 breast) is reported as > 100 µM and the TGI (MCF7 breast) is reported as 80.1 µM.
O=S(=O)(c1ccc(-c2nnc(-c3ccc(F)cc3)o2)cc1)c1ccc(-c2nnc(-c3ccc(F)cc3)o2)cc1 was tested, and the TGI (SW-620 colon) was > 100 µM, the TGI (BT-549 breast) was > 100 µM and the TGI (MCF7 breast) was > 100 µM.
COc1cccc(/C(Cl)=C(\C=O)c2cccc(OC)c2)c1 showed a TGI (SNB-78 CNS) of 30 µM, a TGI (DLD-1 colon) of 29.1 µM and a TGI (DMS 273 small cell lung) of 28.5 µM. The TGI (SW-620 colon) was 19.5 µM, the TGI (DMS 114 small cell lung) was 16.4 µM and the TGI (KM20L2 colon) was 47.8 µM. The TGI (HOP-18 NSCLC) was 41.9 µM, the TGI (LXFL 529 NSCLC) was 20.9 µM and the TGI (M19-MEL melanoma) was 29 µM. For the same compound, the TGI (XF 498 CNS) was 27.1 µM.
For COCC1OC(S(=O)(=O)c2ccccc2)C(O)C(OC)C1OC (configuration not stated), the TGI (SW-620 colon) was > 100 µM, the TGI (BT-549 breast) was > 100 µM and the TGI (MCF7 breast) was > 100 µM.
For CCOc1ccc(N=NC2C(=O)N(C(=O)CC(=O)Nc3ccccc3)N=C2C)cc1 (configuration not stated), the TGI (SW-620 colon) was > 100 µM, the TGI (BT-549 breast) was > 100 µM and the TGI (MCF7 breast) was > 100 µM.
For CC(C)(C)CC(C)(C)NC(=S)NO, the TGI (SW-620 colon) was > 100 µM and the TGI (MCF7 breast) was > 100 µM.
For C=C[C@@]1(O)CCCC[C@@H]1CC(Sc1ccccc1)Sc1ccccc1, the TGI (MCF7 breast) was > 100 µM.
O=[N+]([O-])c1ccc2oc(=Nc3ccccc3)c(Nc3ccccc3)nc2c1 was tested, and the TGI (SW-620 colon) was > 100 µM.
With CC(=O)OC1C2CCC3C(C)(O)C4CC(O)C(C)(C)C4(O)C(O)CC13CC2(C)O (configuration not stated) the TGI (BT-549 breast) was > 100 µM and the TGI (MCF7 breast) was > 100 µM.
Oc1ccccc1C1C=C(c2ccccc2)NC(N2CCCCC2)=C1c1nc2ccccc2[nH]1 (configuration not stated) showed a TGI (SW-620 colon) of 30.5 µM, a TGI (BT-549 breast) of 28.5 µM and a TGI (MCF7 breast) of 24.9 µM.
For N=C(N)SCCC(=O)CCSC(=N)N, the TGI (SW-620 colon) was > 100 µM and the TGI (MCF7 breast) was > 100 µM.
For CC1(C)C(CCO)CC1n1ccc(=O)[nH]c1=O (configuration not stated), the TGI (SW-620 colon) was > 100 µM and the TGI (MCF7 breast) was > 100 µM.
In the case of Cc1ccnc2nc(N)ccc12, the TGI (SW-620 colon) is reported as > 100 µM and the TGI (BT-549 breast) is reported as > 100 µM.
For CCC(COC(=O)CC[C@@H](NC(=O)C(C)NC(=O)C(C)OC1C(O)C(CO)OC(OCc2ccccc2)C1NC(C)=O)C(N)=O)NC1c2ccccc2Nc2cccc([N+](=O)[O-])c21 (some centres not stated), the TGI (SNB-78 CNS) was > 100 µM, the TGI (DLD-1 colon) was > 100 µM and the TGI (DMS 273 small cell lung) was > 100 µM. For the same compound, the TGI (SW-620 colon) was > 100 µM, the TGI (DMS 114 small cell lung) was > 100 µM and the TGI (KM20L2 colon) was > 100 µM. For the same compound, the TGI (HOP-18 NSCLC) was > 100 µM, the TGI (LXFL 529 NSCLC) was > 100 µM and the TGI (M19-MEL melanoma) was > 100 µM. The TGI (XF 498 CNS) was > 100 µM.
